Patent US20240130979A1, “COMPOSITIONS AND METHODS FOR TREATMENT OF SKIN CONDITIONS” (EpiTop, Inc., priority 2022, published 2024)

Key:
Type in all cases: cell-based, human
[1] = system: FLG; experiment: FLG gene expression in NHEKs, real-time RT-PCR (Example 1); conditions: 0.01 and 0.02 v/v % thujopsene, 24 hours, dose-dependent, normalized to 18s RNA (FIG. 1A)
Procedure: (§1) Normal human epidermal keratinocytes (NHEKs) were cultured in a conventional way. NHEKs (Life Technologies, Grand Island, NY, USA) were derived from neonatal foreskin and were grown in serum-free EpiLife cell culture medium (Life Technologies) containing 0.06 mmol/L calcium chloride, 1% human keratinocyte growth supplement S7 (Life Technologies), and 1% of gentamicin/amphotericin. To investigate the effects of thujopsene on the expressions of FLG and LOR, NHEKs were seeded at 2×10^5 cells per well (24-well plate) and differentiated in the presence of 1.3 mmol/L of CaCl2) for 3 days. Then the cells were stimulated with 0 v/v %, 0.01 v/v % and 0.02 v/v % of thujopsene, IL-4 and IL-13, or IFN-γ for an additional 24 hours. Total RNA was isolated from NHEKs. Gene expression levels of FLG and LOR were determined by real-time RT-PCR using an ABI Prism 7300 sequence detector. Gene expressions of FLG and LOR were normalized to the corresponding 18s RNA transcript in the cultured NHEKs.

[2] = system: LOR; experiment: LOR gene expression in NHEKs, real-time RT-PCR (Example 1); conditions: 0.01 and 0.02 v/v % thujopsene, 24 hours, dose-dependent, normalized to 18s RNA (FIG. 1B)
Procedure: as §1

[3] = system: FLG; experiment: Th2 cytokine (IL-4 and IL-13)-mediated inhibition of FLG in NHEKs (Example 2); conditions: 0.01% thujopsene 24 hours, then IL-4 and IL-13 with thujopsene for 2 days (FIG. 2)
Procedure: NHEKs were differentiated in the presence of 1.3 mmol/L of CaCl2) for 3 days. HEKs were incubated with 0.01% of thujopsene for 24 hours, and then the cells were continuously stimulated with IL-4 and IL-13 in the presence or absence of 0.01% of thujopsene for an additional 2 days. The gene expression of FLG was examined using real-time RT-PCR.

[4] = system: FLG; experiment: FLG gene expression in keratinocytes from atopic dermatitis patients (Example 3); conditions: keratinocytes from AD patients, 0.01 v/v % thujopsene, 24 hours, P<0.05 (FIG. 3A)
Procedure: (§2) Human epidermal keratinocytes taken from atopic dermatitis (AD) patients were differentiated in the presence of 1.3 mmol/L of CaCl2) for 3 days, and then the cells were stimulated with 0% and 0.01 v/v % of thujopsene for an additional 24 hours. Total RNA was isolated from keratinocytes. Gene expression levels of FLG and LOR were determined by real-time RT-PCR and normalized to the corresponding 18s RNA transcript in the cultured keratinocytes.

[5] = system: LOR; experiment: LOR gene expression in keratinocytes from atopic dermatitis patients (Example 3); conditions: keratinocytes from AD patients, 0.01 v/v % thujopsene, 24 hours, P=0.01 (FIG. 3B)
Procedure: as §2

[6] = system: FLG; experiment: PM2.5-mediated inhibition of FLG in NHEKs (Example 4); conditions: 0.01% thujopsene 24 hours, then PM2.5 (1 ng/mL) plus thujopsene 48 hours (FIG. 4A)
Procedure: (§3) To investigate the effects of the PM2.5 on the expression of FLG and LOR, NHEKs were differentiated in the presence of 1.3 mmol/L of CaCl2) for 3 days. Then cells were stimulated with PM2.5 (1 ng/mL) for an additional 48 hours.
(§4) To examine whether thujopsene blocks PM2.5-mediated inhibition of epidermal barrier proteins such as FLG and LOR, NHEKs were incubated with thujopsene (0.01 v/v %) for 24 hours, and then cells were stimulated with PM2.5 (1 ng/mL) or combination of thujopsene (0.01 v/v %) and PM2.5 for an additional 48 hours. Total RNAs were isolated from the cells, and real time RT-PCR was performed. EpiLife cell culture medium with 0.1% DMSO was used as a vehicle control for all in vitro experiments, as PM2.5 was diluted with EpiLife cell culture medium with 0.1% DMSO.

[7] = system: LOR; experiment: PM2.5-mediated inhibition of LOR in NHEKs (Example 4); conditions: 0.01% thujopsene 24 hours, then PM2.5 (1 ng/mL) plus thujopsene 48 hours (FIG. 4B)
Procedure: as §3, §4

[8] = system: HBD-3; experiment: HBD-3 gene expression in NHEKs (Example 5); conditions: 0.01% and 0.02% thujopsene, 24 hours, dose-dependent, versus no thujopsene (FIG. 5A)
Procedure: (§5) The upregulation of expressions of HBD-3, LL-37, OR2AT4, and/or SIRT1 can promote would healing and the upregulation of SIRT1 can inhibit tumor cell growth in skin cancer. To investigate the effects of thujopsene on expression of RBD-3, LL-37, OR2AT4, and SIRT1, NHEKs were differentiated in the presence of 1.3 mmol/L of CaCl2) for 3 days. Then cells were stimulated with 0.01% or 0.02% thujopsene for an additional 24 hours. The cell culture medium with 0.1% was used as a vehicle control because thujopsene was diluted with 0.1% of DMSO in cell culture medium.
(§6) Total RNA was isolated from to the cells, and real time RT-PCRs were performed by using an ABI Prism 7300 sequence detector.

[9] = system: LL-37; experiment: LL-37 gene expression in NHEKs (Example 5); conditions: 0.01% and 0.02% thujopsene, 24 hours, dose-dependent, versus no thujopsene (FIG. 5B)
Procedure: as §5, §6

[10] = system: OR2AT4; experiment: OR2AT4 gene expression in NHEKs (Example 5); conditions: 0.01% and 0.02% thujopsene, 24 hours, dose-dependent, versus no thujopsene (FIG. 5C)
Procedure: as §5, §6

[11] = system: SIRT1; experiment: SIRT1 gene expression in NHEKs (Example 5); conditions: 0.01% and 0.02% thujopsene, 24 hours, dose-dependent, versus no thujopsene (FIG. 5D)
Procedure: as §5, §6

[12] = system: IL-6; experiment: LPS-induced IL-6 gene expression in NHEKs (Example 6); conditions: thujopsene (0.01%) plus LPS (1 μg/mL), 24 hours, versus LPS alone (FIG. 6A)
Procedure: (§7) IL-6 aging process and wrinkling and is induced by lipopolysaccharide (LPS) (PMID: 23659624). SIRT1 inhibits skin aging and wrinkling process (PMID: 24011076). To investigate the effects of thujopsene on expression of IL-6 and SIRT1, NHEKs were seeded at 2×10^5 cells per well and differentiated in the presence of 1.3 mmol/L of CaCl2) for 3 days. NHEKs were stimulated with 0.01% or 0.02% thujopsene for 24 hours, and then cells were stimulated with LPS (1 μg/mL) alone or a combination of LPS (1 μg/mL) and thujopsene (0.01%) for an additional 24 hours. The cell culture medium with 0.1% DMSO was used as a vehicle. Total RNAs were isolated from cells, and real time RT-PCRs were performed by using an ABI Prism 7300 sequence detector.

[13] = system: SIRT1; experiment: SIRT1 gene expression in NHEKs (Example 6)
Procedure: as §7

[14] = system: NHEKs; experiment: LDH cell cytotoxicity assay in NHEKs (Example 7)
Procedure: LDH cell cytotoxicity assay: NHEKs were plated at 2×10^5 cells per well in a 24-well plate and differentiated in the presence of 1.3 mmol/L of CaCl2) for 3 days. To examine cell toxicity of thujopsene, the cells were treated with various concentrations of thujopsene for 48 hours, and lactate dehydrogenase (LDH) release was then determined using CytoTox-One Homogeneous Membrane Integrity Assay (Promega, Madison, WI, USA) according to the manufacturer's instructions. Fluorescence was measured on a DTX880 Multimode Detector (Beckman Coulter, Brea, CA, USA) with an excitation wavelength of 560 nm and an emission wavelength of 590 nm. Samples were tested in triplicate and fluorescence results were normalized by subtracting a PBS blank and compared to the keratinocyte LDH release in response to the treatment with 1% triton X-100 solution (maximum LDH release).

CC1=CC[C@]2(C)CCCC(C)(C)[C@@]23C[C@@H]13 [thujopsene]
FLG gene expression [1]: significantly increases
LOR gene expression [2]: significantly increases
FLG gene expression, Th2 cytokines plus thujopsene compared with Th2 cytokines alone [3]: significantly (P<0.01) increased
FLG gene expression compared to vehicle [4]: significantly increased
LOR gene expression compared to vehicle [5]: significantly increased
level of expression of the FLG gene, PM2.5 plus thujopsene versus control [6]: higher than the control
level of expression of the LOR gene, PM2.5 plus thujopsene versus control [7]: about equal to the control
gene expression of RBD-3 [8]: significantly increased
gene expression of LL-37 [9]: significantly increased
gene expression of OR2AT4 [10]: significantly increased
gene expression of SIRT1 [11]: significantly increased
LPS-induced expression of IL-6 [12]: significantly (P<0.01) attenuated
gene expression of SIRT1 ([13]; 0.01% thujopsene, P<0.05 versus no thujopsene (FIG. 6B)): significantly increased
gene expression of SIRT1 ([13]; 0.02% thujopsene, P<0.01 versus no thujopsene (FIG. 6B)): significantly increased
toxicity to NHEKs ([14]; thujopsene up to 0.04 v/v % (FIG. 7 legend)): not toxic
LDH release compared to cells treated with media alone ([14]; thujopsene up to 4 v/v %, 48 hours (FIG. 7)): significantly decreased
toxicity to NHEKs ([14]; thujopsene up to 4 v/v %, 48 hours, LDH release (FIG. 7)): not toxic
